Data published in patent publication US6677310B1, “Ring-expanded nucleosides and nucleotides” (Nabi, priority 1999, dated 2004).

Tests used:
Type in all cases: cell-based, human
CCRF-CEM = assay: SRB anti-cancer assay, Leukemia; conditions: 48 h
RPMI-8226 = assay: SRB anti-cancer assay, Leukemia; conditions: RPMI-8226 (Leukemia), 48 h
SR = assay: SRB anti-cancer assay, Leukemia; conditions: 48 h
EKVX = EKVX (Non-Small Cell Lung Cancer), 48 h
HOP-62 = HOP-62 (Non-Small Cell Lung Cancer), 48 h
NCI-H226 = NCI-H226 (Non-Small Cell Lung Cancer), 48 h
NCI-H23 = NCI-H23 (Non-Small Cell Lung Cancer), 48 h
COLO 205 = assay: SRB anti-cancer assay, Colon Cancer; conditions: COLO 205 (Colon Cancer), 48 h
HCC-2998 = assay: SRB anti-cancer assay, Colon Cancer; conditions: HCC-2998 (Colon Cancer), 48 h
HCT-116 = assay: SRB anti-cancer assay, Colon Cancer; conditions: HCT-116 (Colon Cancer), 48 h
HCT-15 = assay: SRB anti-cancer assay, Colon Cancer; conditions: HCT-15 (Colon Cancer), 48 h
SW-620 = assay: SRB anti-cancer assay, Colon Cancer; conditions: SW-620 (Colon Cancer), 48 h
SF-295 = assay: SRB anti-cancer assay, CNS Cancer; conditions: SF-295 (CNS Cancer), 48 h
SNB-19 = assay: SRB anti-cancer assay, CNS Cancer; conditions: SNB-19 (CNS Cancer), 48 h
SNB-75 = assay: SRB anti-cancer assay, CNS Cancer; conditions: SNB-75 (CNS Cancer), 48 h
MALME-3M = assay: SRB anti-cancer assay, Melanoma; conditions: MALME-3M (Melanoma), 48 h
SK-MEL-28 = assay: SRB anti-cancer assay, Melanoma; conditions: SK-MEL-28 (Melanoma), 48 h
UACC-257 = assay: SRB anti-cancer assay, Melanoma; conditions: UACC-257 (Melanoma), 48 h
OVCAR-3 = assay: SRB anti-cancer assay, Ovarian Cancer; conditions: OVCAR-3 (Ovarian Cancer), 48 h
OVCAR-4 = assay: SRB anti-cancer assay, Ovarian Cancer; conditions: OVCAR-4 (Ovarian Cancer), 48 h
OVCAR-5 = assay: SRB anti-cancer assay, Ovarian Cancer; conditions: OVCAR-5 (Ovarian Cancer), 48 h
OVCAR-8 = assay: SRB anti-cancer assay, Ovarian Cancer; conditions: OVCAR-8 (Ovarian Cancer), 48 h
786-0 = assay: SRB anti-cancer assay, Renal Cancer; conditions: 786-0 (Renal Cancer), 48 h
A498 = assay: SRB anti-cancer assay, Renal Cancer; conditions: 48 h
ACHN = assay: SRB anti-cancer assay, Renal Cancer; conditions: 48 h
CAKI-1 = assay: SRB anti-cancer assay, Renal Cancer; conditions: CAKI-1 (Renal Cancer), 48 h
SN12C = assay: SRB anti-cancer assay, Renal Cancer; conditions: 48 h
UO-31 = assay: SRB anti-cancer assay, Renal Cancer; conditions: UO-31 (Renal Cancer), 48 h
MDA-N = assay: SRB anti-cancer assay, Breast Cancer; conditions: 48 h
[1] = read-out: LC50 (the source's name)

**Q.** What does the source list for `N=c1nc(N)c2ncn([C@@H]3O[C@H](COC(=O)c4ccccc4)[C@@H](OC(=O)c4ccccc4)[C@H]3OC(=O)c3ccccc3)c2c(N)n1` [4,8-Diamino-6H-6-imino-1(2′,3′,5′-tri-O-benzoyl-β-D-ribofuranosyl)imidazo[4,5-e][1,3]diazepine]?
**A.** GI50 (CCRF-CEM): 0.125 µM; TGI (CCRF-CEM): 1.84 µM; CC50 (CCRF-CEM; [1]): 6.4 µM; GI50 (RPMI-8226): 2.53 µM; TGI (RPMI-8226): 7.42 µM; CC50 (RPMI-8226; [1]): > 100 µM; GI50 (SR): 4.27 µM; LC50 (concentration killing 50% of cells) (SR): > 100 µM; TGI (SR): >100 µM; GI50 (EKVX): 10.9 µM; TGI (EKVX): 29.6 µM; CC50 (EKVX; [1]): 80.4 µM; GI50 (HOP-62): 7.64 µM; LC50 (concentration for 50% net cell kill) (HOP-62): 55.6 µM; TGI (HOP-62): 22.7 µM; GI50 (NCI-H226): 6.89 µM; TGI (NCI-H226): 25.1 µM; CC50 (NCI-H226; [1]): 72.4 µM; GI50 (NCI-H23): 12.3 µM; TGI (NCI-H23): 27.7 µM; CC50 (NCI-H23; [1]): 62.3 µM; GI50 (COLO 205): 1.49 µM; LC50 (COLO 205): 5.55 µM; TGI (COLO 205): 2.87 µM; GI50 (HCC-2998): 3.18 µM; TGI (HCC-2998): 6.41 µM; CC50 (HCC-2998; [1]): 19.2 µM; GI50 (HCT-116): 3.76 µM; TGI (HCT-116): 21.2 µM; CC50 (HCT-116; [1]): 87.5 µM; GI50 (HCT-15): 5.77 µM; TGI (HCT-15): 19.5 µM; CC50 (HCT-15; [1]): 50.8 µM; GI50 (SW-620): 5.14 µM; TGI (SW-620): 29.5 µM; CC50 (SW-620; [1]): > 100 µM; GI50 (SF-295): 6.03 µM; TGI (SF-295): 19.6 µM; CC50 (SF-295; [1]): 49.2 µM; GI50 (SNB-19): 14.7 µM; TGI (SNB-19): 31.6 µM; CC50 (SNB-19; [1]): 68.2 µM; GI50 (SNB-75): 12.3 µM; LC50 (concentration killing 50% of cells) (SNB-75): 50.4 µM; TGI (SNB-75): 24.9 µM; GI50 (MALME-3M): 3.04 µM; LC50 (MALME-3M): 33.8 µM; TGI (MALME-3M): 8.07 µM; GI50 (SK-MEL-28): 10.4 µM; LC50 (SK-MEL-28): 65.8 µM; TGI (SK-MEL-28): 26.2 µM; GI50 (UACC-257): 4.51 µM; TGI (UACC-257): 18.3 µM; CC50 (UACC-257; [1]): 73.5 µM; GI50 (OVCAR-3): 10.9 µM; TGI (OVCAR-3): 23 µM; CC50 (OVCAR-3; [1]): 48.7 µM; GI50 (OVCAR-4): 13.8 µM; TGI (OVCAR-4): 28 µM; CC50 (OVCAR-4; [1]): 57 µM; GI50 (OVCAR-5): 15.7 µM; TGI (OVCAR-5): 30.1 µM; CC50 (OVCAR-5; [1]): 57.7 µM; GI50 (OVCAR-8): 4.34 µM; LC50 (50% lethal concentration) (OVCAR-8): > 100 µM; TGI (OVCAR-8): 22.5 µM; GI50 (786-0): 15.5 µM; TGI (786-0): 35.6 µM; CC50 (786-0; [1]): 81.5 µM; GI50 (A498): 20 µM; TGI (A498): 37.8 µM; CC50 (A498; [1]): 71.8 µM; GI50 (ACHN): 10.9 µM; TGI (ACHN): 23.5 µM; CC50 (ACHN; [1]): 50.7 µM; GI50 (CAKI-1): 12.1 µM; TGI (CAKI-1): 26.8 µM; CC50 (CAKI-1; [1]): 59.4 µM; GI50 (SN12C): 6.44 µM; TGI (SN12C): 39.4 µM; CC50 (SN12C; [1]): > 100 µM; GI50 (UO-31): 6.4 µM; TGI (UO-31): 20.6 µM; CC50 (UO-31; [1]): 51.1 µM; GI50 (MDA-N): 5.88 µM; TGI (MDA-N): 21.7 µM; CC50 (MDA-N; [1]): 58.6 µM
